The values below come from US12503440B2, “Nitroxoline derivative, preparation method therefor, and use thereof” (Jiangsu Yahong Meditech Co., Ltd., priority 2020, dated 2025).

Each structure is given as a SMILES string. In brackets after ≈: the same amount, converted by molar mass.

Format in all cases: cell-based
Assay [1] deals with Mouse prostate cancer cell line RM-1. The experiment in a line: Inhibitory activity on cancer cells, CellTiter-Glo viability, 72 h. The following applies: RM-1, 72 h. From the text: (§1) • HUVEC (purchased from Allcells Biological Technology (Shanghai) Co., Ltd.); UM-UC-3 (ATCC); LNCaP Clone FGC (ATCC); RM-1 (purchased from Nanjing Cobioer Biosciences Co., Ltd.) 2. Reagents • Endothelial cell complete medium (Allcells, H-004) • Medium RPMI1640 (ATCC, 30-2001) • Medium EMEM (ATCC, 30-2003) • Medium DMEM (Gibco, 12430-054) • Fetal bovine serum (Gibco, 10091148) • Penicillin-streptomycin double anti-body (Gibco, S110JV) • DPBS (Gibco, 14190-144) • CellTiter-Glo® kit (Promega, G7573) • Trypsin (0.25%), phenol red (Gibco, 25200-056) • DMSO (Sigma, D2650) 3. Instruments • Biological safety cabinet (Suzhou Antai Airtech Co., Ltd., BSC-1300A II) • Inverted microscope (Nikon, CKX53) • Automated cell counter (Life Technologies, countess II) • Multifunctional microplate reader (Biotek, H1FM) • Shaker (Hangzhou Allsheng Instruments Co., Ltd., OS-100) • GraphPad Prism 5.0 software • XLFIT 5.3 (Inforstack Shanghai Co., Ltd.) 4. Test Method
(§2) In this test method, the following experiments were carried out in a biological safety cabinet, and the specific steps are as follows: • (1) On the first day, the cells were seeded in a 96-well plate, and the previous medium was poured off. 5 mL of DPBS was added to wash the cells, and then removed by a pipette. Then, 1 mL of trypsin (0.25%) was added, and the plate was placed in a cell culture incubator at 37° C., 5% CO2 for digestion, and taken out after about 2 to 5 minutes. New corresponding medium was added, and pipetted to resuspend the cells evenly, and the cells were then counted with an automated cell counter.
(§3) The digestion was observed using an inverted microscope.
(§4) Regarding to HUVEC, the medium used was endothelial cell complete medium; regarding to UM-UC-3, the medium used was 89v % EMEM+10v % fetal bovine serum+1 v % penicillin-streptomycin double anti-body; regarding to LNcaP Clone FGC, the medium used was 89v % RPM11640+10v % fetal bovine serum+1 v % penicillin-streptomycin double anti-body; and regarding to RM-1, the medium used was 89v % DMEM+10v % fetal bovine serum+1v % penicillin-streptomycin double anti-body. • (2) HUVEC cells were seeded in columns 1 to 11 of a 96-well plate (Corning, Cat. No. 3610) at a density of 2000 cells per well in 100 μL of medium, and the medium free of cell was added to the wells of column 12. The other three types of cells were also seeded, wherein UM-UC-3 and RM-1 cells were seeded at a density of 3000 cells per well, and LNCap Clone FGC cells were seeded at a density of 5000 cells per well. Then, the plate was placed in an incubator at 37° C., 5% CO2 for 24 hours. • (3) On the second day, the compounds of the present invention and the reference drug nitroxoline (obtained according to the preparation method disclosed in the prior art) were diluted in gradient (2.5 folds, started at 100 μmol) to obtain 8 dose points (there were a total of 8 columns of wells; the first column of wells had the highest concentration, the concentration decreased in turn, and the last column of wells had the lowest concentration). 10 uL of the compound diluted in gradient was added to the 100 μL of cells in column 1 to column 10 with an 8-channel pipette. 10 μL of the corresponding medium containing 0.33v % DMSO was added to column 11 and column 12. The plate was incubated in an incubator at 37° C., 5% CO2 for 72 hours (note: column 11 was used as MAX well with cells and no compounds; and column 12 was used as MIN well with no cells and no compounds). • (4) After treating with the compounds of the present invention for 72 hours, the cell viability detection reagents in the above CellTiter-Glo® kit were added to the 96-well plate at 50 μL per well according to the instructions. […]

In assay [2] the test system is Bladder cancer cell line UM-UC-3. The description is as above. The following applies: Homo sapiens, UMUC3, UM-UC-3, 72 h.
Source text: as §1, §2, §3, §4

Assay [3] relates to Prostate cancer cell line LNcaP Clone FGC. The assay is described as above. To be noted: Homo sapiens.
Source text: as §1, §2, §3, §4

Assay [4] has as its system Endothelial cell line HUVEC. Nature of the assay: Inhibitory activity on cells, CellTiter-Glo viability, 72 h. The following applies: Homo sapiens.
Source text: as §1, §2, §3, §4
(In general: In ATP-based viability assays light output follows the ATP content of the culture.)

The test system of assay [5] is Escherichia coli. Nature of the assay: Bacteriostatic activity, micro broth dilution MIC (CLSI). The following applies: 20 hours. As for the experimental part:
(§5) The purpose of this test is to determine the bacteriostatic activity of the compounds of the present invention against a representative panel of strains (Gram-negative bacteria: […] ATCC 25922, Acinetobacter baumannii ATCC 19606; Gram-positive bacteria: Staphylococcus aureus ATCC29213). Bacteriostatic activity was determined by minimum inhibitory concentration (MIC), MIC50, MIC90. This test was entrusted to Shanghai Junj Lab Co., Ltd. Except for the test drugs, all other test materials were provided by Shanghai Junj Lab Co., Ltd.
(§6) The tested bacteria were several strains of clinically isolated carbapenem-resistant Escherichia coli, several strains of carbapenem-resistant Acinetobacter baumannii, several strains of methicillin-resistant Staphylococcus aureus, and several strains of sensitive Staphylococcus aureus. Duplicate strains isolated from the same patient were eliminated. There were also three quality control strains Escherichia coli ATCC 25922, Acinetobacter baumannii ATCC 19606, and Staphylococcus aureus ATCC 29213. The activity test of each compound was carried out on one or more strains of each of the above test bacteria.
(§7) According to the recommendations of relevant documents of the American Clinical and Laboratory Standards Institute (CLSI), the micro broth dilution method was used to determine the MIC of the compounds of the present invention against clinically isolated strains. The culture solution free of drug was used as the test bacteria positive control, the culture solution free of bacterial solution was used as the drug negative control, and the culture solution free of drug solution and bacterial solution was used as the blank control. • 4.1 Formulation of antibacterial drug: All the compounds of the present invention were dissolved in DMSO. The drug concentration range was 128 mg/L-0.06 mg/L. Specific method: The compounds of the present invention were successively diluted by 1:1 with DMSO to obtain an intermediate series with a range of 25600 mg/L-12.5 mg/L. 30 μL of solution from each tube of the intermediate series of each compound was added to a 3 mL/tube series of single broth tube, and mixed well to obtain an intermediate series with a range of 256 mg/L to 0.125 mg/L. The diluted series solution was added to the drug susceptibility plate line by line, 50 μL of solution per well. All ranges became investigated ranges after being mixed with an equal volume of bacterial solution: 128-0.06 mg/L. • 4.2 Culture medium: The drug susceptibility test used cation adjusted Mueller-Hinton broth (CAMHB). • 4.3 Amount of inoculum: The test bacteria cultured overnight were adjusted to 0.5 McFarland turbidity by the direct colony suspension method, and diluted 100 folds, the final inoculum amount was 10^5 CFU/mL. • 4.4 Culture conditions: The test bacteria were cultured at 35±2° C. for 20 hours in air. 5. Interpretation and Judgment of Results
(§8) The drug susceptibility test results were interpretated by reference to CLSI 2019 edition M100 29th edition criteria.
(§9) The results of drug susceptibility test were statistically analyzed by WHONET version 5.6 software.
(§10) The culture solution free of bacterial solution was used as the drug negative control, and the culture solution free of drug solution and bacterial solution was used as the blank control, wherein no bacteria grew in both solutions.
For orientation: Dilution methods test growth across graded concentrations, often in twofold steps.

In assay [6] the test system is Acinetobacter baumannii. The description is as above. The following applies: clinical strains (carbapenem-resistant), CAMHB, 20 hours. As for the experimental part:
as §5, §6, §7, §8, §9, §10

The test system of assay [7] is Staphylococcus aureus. Described as above. The following applies: clinical strains (methicillin-resistant and sensitive), CAMHB, 20 hours. As for the experimental part: as §5, §6, §7, §8, §9, §10

`O=[N+]([O-])c1ccc(O)c2nccc(Cl)c12` [Example 2, 4-chloro-5-nitroquinolin-8-ol]: the IC50 – broadly, the concentration at which inhibition is half-maximal – in assay [1] is 3.1 µM; in assay [2] it was 2 µM; in assay [3], 4.9 µM; in assay [4], 3 µM. The MIC50 (as a rule, the lowest concentration that inhibits either 50% of growth or 50% of the strains tested, depending on the study) is 8 µg/mL (≈ 35.6 µM) in assay [5] (clinical strains (carbapenem-resistant), CAMHB, read-out: Escherichia coli Clinical strain MIC50); 4 µg/mL (≈ 17.8 µM) in assay [6] (read-out: Acinetobacter baumannii Clinical strain MIC50); 4 µg/mL (≈ 17.8 µM) in assay [7] (read-out: Staphylococcus aureus Clinical strain MIC50). The MIC90 – broadly, an inhibitory concentration at the 90% level, which refers to growth in some studies and to a panel of isolates in others – in assay [5] (clinical strains (carbapenem-resistant), CAMHB, read-out: Escherichia coli Clinical strain MIC90) was determined as 8 µg/mL (≈ 35.6 µM); in assay [6] (read-out: Acinetobacter baumannii Clinical strain MIC90), 8 µg/mL (≈ 35.6 µM); in assay [7] (read-out: Staphylococcus aureus Clinical strain MIC90), 4 µg/mL (≈ 17.8 µM). Also, the MIC (as a rule, the least concentration at which growth counts as inhibited) in assay [5] (standard strain ATCC25922, CAMHB) came out at 8 µg/mL (≈ 35.6 µM).
